In the CheMixHub viscosity set:

Test: xn = mol fraction of the nth substance listed

C1CCCC1 + CC(C)CCO
viscosity [mPa·s], 101 kPa
Conditions | 298.15 K | 308.15 K
x1 = 0.0443 | 3.482 | 2.238
x1 = 0.0808 | 3.173 | 2.06
x1 = 0.1182 | 2.966 | 1.962
x1 = 0.2087 | 2.37 | 1.573
x1 = 0.3063 | 1.857 | 1.278
x1 = 0.3959 | 1.511 | 1.09
x1 = 0.521 | 1.086 | 0.7741
x1 = 0.616 | 0.8169 | 0.6771
x1 = 0.7042 | 0.6669 | 0.5329
x1 = 0.8044 | 0.5675 | 0.4453
x1 = 0.8984 | 0.4649 | 0.3966
x1 = 0.9358 | 0.4361 | 0.3784
x2 = 0.0075 | 0.4035 | 0.353

OCc1ccccc1 + Cc1ccccc1
viscosity [mPa·s]
Conditions | 293.15 K | 303.15 K | 313.15 K | 323.15 K
100 kPa, x1 = 0.1006 | 0.699 | – | – | –
100 kPa, x1 = 0.1997 | 0.851 | – | – | –
100 kPa, x1 = 0.3007 | 1.051 | – | – | –
100 kPa, x1 = 0.402 | 1.329 | – | – | –
100 kPa, x1 = 0.502 | 1.717 | – | – | –
100 kPa, x1 = 0.6 | 2.158 | – | – | –
100 kPa, x1 = 0.6925 | 2.764 | – | – | –
100 kPa, x1 = 0.7994 | 3.659 | – | – | –
100 kPa, x1 = 0.8995 | 4.821 | – | – | –
101 kPa, x2 = 0.0973 | – | 3.563 | 2.793 | 2.117
101 kPa, x2 = 0.1952 | – | 2.788 | 2.237 | 1.73
101 kPa, x2 = 0.2937 | – | 2.226 | 1.781 | 1.403
101 kPa, x2 = 0.3927 | – | 1.758 | 1.44 | 1.157
101 kPa, x2 = 0.4924 | – | 1.386 | 1.15 | 0.9401
101 kPa, x2 = 0.5927 | – | 1.107 | 0.9561 | 0.7918
101 kPa, x2 = 0.6936 | – | 0.8989 | 0.7776 | 0.6576
101 kPa, x2 = 0.7951 | – | 0.7359 | 0.6508 | 0.5456
101 kPa, x2 = 0.8972 | – | 0.6154 | 0.5511 | 0.4771

CN1CCCC1=O + CCC(C)O
viscosity [mPa·s], 101.3 kPa
Conditions | x2 = 0.1049 | x2 = 0.4019 | x2 = 0.5003
293.15 K | 1.815 | – | –
313.15 K | – | 1.285 | 1.285

NCCO + CCCO
viscosity [mPa·s], 101.3 kPa
Conditions | x1 = 0.0998 | x1 = 0.1999 | x1 = 0.3005 | x1 = 0.4 | x1 = 0.5 | x1 = 0.6 | x1 = 0.7 | x1 = 0.8 | x1 = 0.9
303.15 K | 2.09 | 2.56 | 3.17 | 3.97 | 4.94 | 6.22 | 7.7 | 9.64 | 12
313.15 K | 1.66 | 2 | 2.42 | 2.97 | 3.63 | 4.44 | 5.41 | 6.62 | 8.11
323.15 K | 1.35 | 1.59 | 1.92 | 2.3 | 2.75 | 3.31 | 3.93 | 4.73 | 5.69

CC(C)(C)C1CCCCC1 + CCCCCCCCCCCC
viscosity [mPa·s], 102 kPa
Conditions | x1 = 0.1003 | x1 = 0.2004 | x1 = 0.3011 | x1 = 0.4005 | x1 = 0.5001 | x1 = 0.601 | x1 = 0.7001 | x1 = 0.8003 | x1 = 0.8991
293.15 K | 1.5 | 1.5 | 1.5 | 1.51 | 1.53 | 1.54 | 1.57 | 1.6 | 1.64
303.15 K | 1.26 | 1.26 | 1.27 | 1.27 | 1.28 | 1.3 | 1.32 | 1.34 | 1.38
313.15 K | 1.07 | 1.07 | 1.08 | 1.09 | 1.09 | 1.11 | 1.13 | 1.15 | 1.17
323.15 K | 0.92 | 0.925 | 0.933 | 0.939 | 0.946 | 0.958 | 0.975 | 0.992 | 1.01
